Read-outs that look alike come from different tables or passages of the source.
B1: Wnt3a: Wnt3a protein (positive control group) which binds directly to the receptor of Wnt/β-catenin (protein, UniProt P56704 19-352, looked up)
Protein Wnt-3a: SYPIWWSLAVGPQYSSLGSQPILCASIPGLVPKQLRFCRNYVEIMPSVAEGIKIGIQECQHQFRGRRWNCTTVHDSLAIFGPVLDKATRESAFVHAIASAGVAFAVTRSCAEGTAAICGCSSRHQGSPGKGWKWGGCSEDIEFGGMVSREFADARENRPDARSAMNRHNNEAGRQAIASHMHLKCKCHGLSGSCEVKTCWWSQPDFRAIGDFLKDKYDSASEMVVEKHRESRGWVETLRPRYTYFKVPTERDLVYYEASPNFCEPNPETGSFGTRDRTCNVSSHGIDGCDLLCCGRGHNARAERRREKCRCVFHWCCYVSCQECTRVYDVHTCK

Key:
[1] = tested on: β-catenin; experiment: Expression of β-catenin protein in dermal papilla cells (SDS-PAGE / anti-β-catenin antibody); type: cell-based, human; conditions: for activity at 2 µg/mL / activity at 20 µg/mL: Homo sapiens, 24 h, read-out: Expression level of β-catenin protein (%)
Description: Human dermal papilla cells were seeded onto a 6-well plate at 500,000 cells/well and then incubated for 1 day after treating with 2 or 20 μg/mL valechlorine, tussilagone, periplocin, lysionotin, nitidine, lanosterol, engeletin, specnuezhenide, praeruptorin B, rotundic acid, sesamoside or polyphyllin VII. After the incubation, the cells were lysed using an M-PER lysis buffer and a cell lysate of the same volume was loaded on SDS-PAGE gel. After transferring the cell lysate loaded on the SDS-PAGE gel to a nitrocellulose membrane, proteins were detected by attaching anti-β-catenin antibodies to the nitrocellulose membrane. GAPDH was used as a control for calibrating the quantity of proteins. The amount of β-catenin increased by the valechlorine, tussilagone, periplocin, lysionotin, nitidine, lanosterol, engeletin, specnuezhenide, praeruptorin B, rotundic acid, sesamoside or polyphyllin VII was investigated. The control group was set at 100%, and the results were represented as a percentage compared to the control group as shown in Table 5.

[2] = tested on: human-derived dermal papilla cells (DPCs); experiment: Proliferation of dermal papilla cells (CCK-8); type: cell-based; conditions: for activity at 2 µg/mL / activity at 20 µg/mL: read-out: Proliferation of dermal papilla cells (%)
Description: The effect of promoting the proliferation of dermal papilla cells was investigated using human-derived dermal papilla cells (DPCs). The human-derived dermal papilla cells were purchased from PromoCell. The DPCs were cultured using a medium (follicle dermal papilla cell growth medium; PromoCell, Heidelberg, Germany) and a medium additive (supplement mix; PromoCell, Heidelberg, Germany) recommended by PromoCell under the condition of 37° C. and 5% CO2. The cultured DPCs were seeded onto a 96-well plate at 3,000 cells/well and then cultured for 24 hours under 0.1% serum condition. Then, the cultured cells were incubated for 1 day after treating with DMSO diluted with serum-free DMEM to 1:1000 (vehicle), 0.1 μg/mL minoxidil as a positive control group, or at 2 or 20 μg/mL valechlorine, tussilagone, periplocin, lysionotin, nitidine, lanosterol, engeletin, specnuezhenide, praeruptorin B, rotundic acid, sesamoside or polyphyllin VII. After the incubation, cell proliferation was evaluated by the CCK method. CCK-8 was treated to a medium at 1:10 and then incubated for 1 hour. 1 hour later, the absorbance of each well was measured at 450 nm. All experiments were repeated 3 times and the average of absorbance was calculated. The control group was set at 100%, and the results were represented as a percentage compared to the control group.

[3] = tested on: β-catenin; experiment: Expression of β-catenin protein in dermal papilla cells (SDS-PAGE / anti-β-catenin antibody); type: cell-based, human; conditions: 0.5 μg/mL (positive control); control group = 100%
[4] = 2 μg/mL, 1 day, control group = 100%, GAPDH calibration
[5] = 20 μg/mL, 1 day, control group = 100%, GAPDH calibration
[6] = Homo sapiens, 24 h, 2 μg/mL, 1 day, control group = 100%
[7] = Homo sapiens, 24 h, 20 μg/mL, 1 day, control group = 100%

Row | Molecule | activity at 2 µg/mL [1, 4] [%] | activity at 20 µg/mL [1, 5] [%] | activity at 2 µg/mL [2, 6] [%] | activity at 20 µg/mL [2, 7] [%] | further results
1 | CC(C)=CCC[C@@H](C)[C@H]1CC[C@@]2(C)C3=C(CC[C@]12C)[C@@]1(C)CC[C@H](O)C(C)(C)[C@@H]1CC3 [Lanosterol] | 241 | 246 | 143 | 189 | 
2 | COc1ccc(-c2cc(=O)c3c(O)c(OC)c(O)c(OC)c3o2)cc1 [Lysionotin] | 210 | 232 | 164 | 179 | 
3 | Nc1cc(N2CCCCC2)nc(N)[n+]1[O-] [Minoxidil, reference compound] |  |  |  |  | activity at 0.1 µg/mL ([2]; Homo sapiens, 24 h, 100 ng/ml (positive control), 1 day, control group = 100%): 130%
4 | COc1cc2c[n+](C)c3c4cc5c(cc4ccc3c2cc1OC)OCO5 [Nitidine] | 220 | 262 | 155 | 181 | 
5 | C/C=C(\C)C(=O)OC1c2c(ccc3ccc(=O)oc23)OC(C)(C)C1OC(=O)/C(C)=C/C (stereo not drawn) [Praeruptorin B] |  |  |  |  | activity at 2 µg/mL [1]: 211%; activity at 20 µg/mL [1]: 250%; activity at 2 µg/mL ([2]; Homo sapiens, 24 h): 144%; activity at 20 µg/mL ([2]; Homo sapiens, 24 h): 173%
6 | C[C@@H]1CC[C@]2(C(=O)O)CC[C@]3(C)C(=CC[C@@H]4[C@@]5(C)CC[C@H](O)[C@@](C)(CO)[C@@H]5CC[C@]43C)[C@@H]2[C@]1(C)O [Rotundic acid] | 211 | 258 | 156 | 183 | 
7 | COC(=O)C1=CO[C@@H](O[C@@H]2O[C@H](CO)[C@@H](O)[C@H](O)[C@H]2O)[C@@H]2[C@@]3(C)O[C@H]3[C@@H](O)[C@]12O [Sesamoside] | 245 | 295 | 168 | 194 | 
8 | C/C=C1/[C@H](O[C@@H]2O[C@H](CO)[C@@H](O)[C@H](O)[C@H]2O)OC=C(C(=O)OC)[C@H]1CC(=O)OC[C@H]1O[C@@H](OCCc2ccc(O)cc2)[C@H](O)[C@@H](O)[C@@H]1O [Specnuezhenide] | 216 | 289 | 150 | 170 | 
9 | C=C1[C@H](OC(=O)/C=C(\C)CC)C[C@@H](C(C)C)[C@@H]2[C@@H]([C@H](C)OC(C)=O)C(=O)C[C@@H]12 [Tussilagone] | 208 | 253 | 157 | 178 | 
10 | CC(=O)OCC1=CO[C@@H](OC(=O)CC(C)C)[C@H]2C1=C[C@H](OC(=O)CC(C)C)[C@]2(O)CCl [Valechlorine] |  |  |  |  | activity at 2 µg/mL [1]: 217%; activity at 20 µg/mL [1]: 234%; activity at 2 µg/mL ([2]; Homo sapiens, 24 h): 146%; activity at 20 µg/mL ([2]; Homo sapiens, 24 h): 159%
11 | Engeletin |  |  |  |  | Expression level of β-catenin protein (%) [1, 4]: 231.1%; Expression level of β-catenin protein (%) [1, 5]: 276.3%; Proliferation of dermal papilla cells (%) ([2]; 2 μg/mL, 1 day, control group = 100%): 143.2%; Proliferation of dermal papilla cells (%) ([2]; 20 μg/mL, 1 day, control group = 100%): 188.1%
12 | B1 |  |  |  |  | Expression level of β-catenin protein (%) [3]: 208.8%

— patent publication US20230330120A1, “COMPOSITION FOR PREVENTING HAIR LOSS OR PROMOTING HAIR REGROWTH” (LG HOUSEHOLD & HEALTH CARE LTD., priority 2020, published 2023)
